The values that follow come from US10988449B2, “Isoxazole derivatives as nuclear receptor agonists and uses thereof” (IL DONG PHARMACEUTICAL CO., LTD., priority 2017, dated 2021).

The target in the assay is T1, human FXR (Homo sapiens, UniProt Q96RI1).
T1 construct: expressed in transfected cells
T1 sequence (Q96RI1 1-486): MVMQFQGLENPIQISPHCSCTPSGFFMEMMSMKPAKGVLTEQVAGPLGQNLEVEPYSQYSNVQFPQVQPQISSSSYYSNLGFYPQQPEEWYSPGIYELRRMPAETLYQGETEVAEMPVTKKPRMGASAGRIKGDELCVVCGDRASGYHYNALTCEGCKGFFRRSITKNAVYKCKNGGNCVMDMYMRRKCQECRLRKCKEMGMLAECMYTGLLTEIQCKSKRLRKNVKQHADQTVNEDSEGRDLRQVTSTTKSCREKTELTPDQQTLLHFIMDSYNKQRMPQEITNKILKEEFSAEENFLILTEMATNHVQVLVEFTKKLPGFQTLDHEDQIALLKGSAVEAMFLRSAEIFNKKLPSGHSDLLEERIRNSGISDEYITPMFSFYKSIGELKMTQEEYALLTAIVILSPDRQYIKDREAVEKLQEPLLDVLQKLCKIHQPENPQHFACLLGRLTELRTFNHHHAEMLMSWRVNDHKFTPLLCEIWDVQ
The assay is described as follows: FXR reporter assay (cellular FXR activities). It is filed as cell-based. The following applies: for EC50: FXR reporter cells, 24 hours incubation, luciferase, read-out: Reporter Cell EC50; for Emax: read-out: Emax (%) (GW4064 Emax = 100%). The protocol: FXR reporter assay was performed to measure cellular FXR activities of the compounds in the present invention. FXR reporter cells with high expression level of human FXR were seeded into 96-well cell culture plates, and incubated for 1-2 hours at 37° C. under 5% CO2 atmosphere. The invented compounds diluted in DMSO with various concentrations were added to the 96-well cell culture plates, and they were incubated for 24 hours at 37° C. under 5% CO2 atmosphere. After incubation, we calculate EC50 by using luciferase substrate.
On the technique in general: A reporter such as luciferase makes a cellular process visible.

Counter-ions that a name gives are not always drawn. Bounds are passed on as bounds.

A word on the EC50: it is the midpoint of the concentration-response curve. A word on the Emax: it is the size of the effect at its maximum, as opposed to the concentration needed. On to `O=C(O)c1cc(C#Cc2ccc(OCc3c(-c4c(Cl)cccc4Cl)noc3C3CC3)cc2Cl)cc(C(F)(F)F)c1` [Compound I-31, 3-((2-chloro-4-((5-cyclopropyl-3-(2,6-dichlorophenyl)isoxazol-4-yl)methoxy)phenyl)ethynyl)-5-(trifluoromethyl)benzoic acid], for which the half-maximal effective concentration (EC50) lay within 0.02 to 0.06 µM and the maximal response (Emax) is over 100%.
The matching figures for `O=C(O)c1cc(C#Cc2ccc(OCc3c(-c4c(Cl)cccc4Cl)noc3C3CC3)cc2Cl)ccc1F` [Compound I-37, 5-((2-chloro-4-((5-cyclopropyl-3-(2,6-dichlorophenyl)isoxazol-4-yl)methoxy)phenyl)ethynyl)-2-fluorobenzoic acid]: 0.06 to 0.2 µM and 94%.
The matching figures for `O=C(O)c1cc(C#Cc2ccc(OCc3c(-c4c(Cl)cccc4Cl)noc3C3CC3)cc2Cl)cc(CNC2CC2)c1` [Compound I-42, 3-((2-chloro-4-((5-cyclopropyl-3-(2,6-dichlorophenyl)isoxazol-4-yl)methoxy)phenyl)ethynyl)-5-((cyclopropylamino)methyl)benzoic acid]: 0.02 to 0.06 µM and over 100%.
Turning to `O=C(O)c1cc(C#Cc2ccc(OCc3c(-c4c(Cl)cccc4Cl)noc3C3CC3)cc2Cl)c2ccn(Cc3ccncc3)c2c1` [Compound I-94, 4-((2-chloro-4-((5-cyclopropyl-3-(2,6-dichlorophenyl)isoxazol-4-yl)methoxy)phenyl)ethynyl)-1-(pyridin-4-ylmethyl)-1H-indole-6-carboxylic acid], the half-maximal effective concentration (EC50) fell in the range of 0.06 to 0.2 µM and the maximum response (Emax) is over 100%.
For `O=C(Nc1cc(C#Cc2ccc(OCc3c(-c4c(Cl)cccc4Cl)noc3C3CC3)cc2Cl)cc(C(=O)O)c1)OCCO` [Compound I-81, 3-((2-chloro-((5-cyclopropyl-3-(2,6-dichlorophenyl)isoxazol-4-yl)methoxy)phenyl)ethynyl)-5-(((2-hydroxyethoxy)carbonyl)amino)benzoic acid], in that order: 0.2 to 1 µM and over 100%.
For `O=C(O)c1cc(C#Cc2ccc(OCc3c(-c4c(Cl)cccc4Cl)noc3C3CC3)cc2Cl)cc(CN2CCOCC2)c1` [Compound I-50, 3-((2-chloro-4-((5-cyclopropyl-3-(2,6-dichlorophenyl)isoxazol-4-yl)methoxy)phenyl)ethynyl)-5-(morpholinomethyl)benzoic acid], in that order: 0.02 to 0.06 µM and over 100%.
The matching figures for `O=C(O)c1cccc(C#Cc2ccc(OCc3c(-c4c(Cl)cccc4Cl)noc3C3CC3)cc2Cl)c1F` [Compound I-36, 3-((2-chloro-4-((5-cyclopropyl-3-(2,6-dichlorophenyl)isoxazol-4-yl)methoxy)phenyl)ethynyl)-2-fluorobenzoic acid]: 0.06 to 0.2 µM and 93%.
As for `CCOC(=O)Nc1cc(C#Cc2ccc(OCc3c(-c4c(Cl)cccc4Cl)noc3C3CC3)cc2Cl)cc(C(=O)O)c1` [Compound I-74, 3-((2-chloro-4-((5-cyclopropyl-3-(2,6-dichlorophenyl)isoxazol-4-yl)methoxy)phenyl)ethynyl)-5-((ethoxycarbonyl)amino)benzoic acid], the EC50 is at most 0.02 µM and the Emax is over 100%.
In the case of `CN(C(=O)OC(C)(C)C)c1cc(C#Cc2ccc(OCc3c(-c4c(Cl)cccc4Cl)noc3C3CC3)cc2Cl)cc(C(=O)O)c1` [Compound I-78, 3-((tert-butoxycarbonyl)(methyl)amino)-5-((2-chloro-4-((5-cyclopropyl-3-(2,6-dichlorophenyl)isoxazol-4-yl)methoxy)phenyl)ethynyl)benzoic acid], the concentration giving a half-maximal response (EC50) was in the range of 0.02 to 0.06 µM and the Emax was determined as 89%.
With `O=C(O)c1cccc(C#Cc2ccc(OCc3c(-c4ccccc4OC(F)(F)F)noc3C3CC3)cc2Cl)c1` [Compound I-88, 3-((2-chloro-4-((5-cyclopropyl-3-(2-(trifluoromethoxy)phenyl)isoxazol-4-yl)methoxy)phenyl)ethynyl)benzoic acid], the EC50 lay in the range of 0.2 to 1 µM and the Emax worked out at 97%.
For `NS(=O)(=O)c1cccc(C#Cc2ccc(OCc3c(-c4c(Cl)cccc4Cl)noc3C3CC3)cc2Cl)c1` [Compound I-12, 3-((2-chloro-4-((5-cyclopropyl-3-(2,6-dichlorophenyl)isoxazol-4-yl)methoxy)phenyl)ethynyl)benzenesulfonamide], in that order: 0.2 to 1 µM and over 100%.
For `O=C(O)c1cc(C#Cc2ccc(OCc3c(-c4c(Cl)cccc4Cl)noc3C3CC3)cc2Cl)cc(N2CCC2)c1` [Compound I-55, 3-(azetidin-1-yl)-5-((2-chloro-4-((5-cyclopropyl-3-(2,6-dichlorophenyl)isoxazol-4-yl)methoxy)phenyl)ethynyl)benzoic acid], in that order: 0.02 to 0.06 µM and over 100%.
For `CC(C)c1cc(C#Cc2ccc(OCc3c(-c4c(Cl)cccc4Cl)noc3C3CC3)cc2Cl)cc(C(=O)O)c1` [Compound I-66, 3-((2-chloro-4-((5-cyclopropyl-3-(2,6-dichlorophenyl)isoxazol-4-yl)methoxy)phenyl)ethynyl)-5-isopropylbenzoic acid], in that order: 0.06 to 0.2 µM and 92%.
For the compound `COC(=O)c1cccc(C#Cc2ccc(OCc3c(-c4c(Cl)cccc4Cl)noc3C3CC3)cc2Cl)c1` [Compound I-7, methyl 3-((2-chloro-4-((5-cyclopropyl-3-(2,6-dichlorophenyl)isoxazol-4-yl)methoxy)phenyl)ethynyl)benzoate], the EC50 was over 1 µM and the maximal response (Emax) turned out to be 85%.
For `CS(=O)(=O)Nc1cccc(C#Cc2ccc(OCc3c(-c4c(Cl)cccc4Cl)noc3C3CC3)cc2Cl)c1` [Compound I-13, N-(3-((2-chloro-4-((5-cyclopropyl-3-(2,6-dichlorophenyl)isoxazol-4-yl)methoxy)phenyl)ethynyl)phenyl)methanesulfonamide], in that order: 0.2 to 1 µM and 90%.
For `O=C(O)c1cc(C#Cc2ccc(OCc3c(-c4c(Cl)cccc4Cl)noc3C3CC3)cc2Cl)cc(OC(F)(F)F)c1` [Compound I-39, 3-((2-chloro-4-((5-cyclopropyl-3-(2,6-dichlorophenyl)isoxazol-4-yl)methoxy)phenyl)ethynyl)-5-(trifluoromethoxy)benzoic acid], in that order: 0.2 to 1 µM and 85%.
Regarding `O=C(O)c1cc(C#Cc2ccc(OCc3c(-c4c(Cl)cccc4Cl)noc3C3CC3)cc2Cl)cc(N2CCNCC2)c1` [Compound I-59, 3-((2-chloro-4-((5-cyclopropyl-3-(2,6-dichlorophenyl)isoxazol-4-yl)methoxy)phenyl)ethynyl)-5-(piperazin-1-yl)benzoic acid hydrochloride], the EC50 was in the range of 0.2 to 1 µM and the Emax came to 90%.
For `O=C(O)c1cc(C#Cc2ccc(OCc3c(-c4c(Cl)cccc4Cl)noc3C3CC3)cc2Cl)cc2c1OCC2` [Compound I-100, 5-((2-chloro-4-((5-cyclopropyl-3-(2,6-dichlorophenyl)isoxazol-4-yl)methoxy)phenyl)ethynyl)-2,3-dihydrobenzofuran-7-carboxylic acid], in that order: 0.06 to 0.2 µM and over 100%.
The matching figures for `CCc1nc2cc(C#Cc3ccc(OCc4c(-c5c(Cl)cccc5Cl)noc4C4CC4)cc3Cl)cc(C(=O)O)c2o1` [Compound I-104, 5-((2-chloro-4-((5-cyclopropyl-3-(2,6-dichlorophenyl)isoxazol-4-yl)methoxy)phenyl)ethynyl)-2-ethylbenzo[d]oxazole-7-carboxylic acid]: at most 0.02 µM and 94%.
For `CNCc1cc(C#Cc2ccc(OCc3c(-c4c(Cl)cccc4Cl)noc3C3CC3)cc2Cl)cc(C(=O)O)c1` [Compound I-44, 3-((2-chloro-4-((5-cyclopropyl-3-(2,6-dichlorophenyl)isoxazol-4-yl)methoxy)phenyl)ethynyl)-5-((methylamino)methyl)benzoic acid], in that order: 0.2 to 1 µM and over 100%.
Take `O=C(O)c1cc(C#Cc2ccc(OCc3c(-c4c(Cl)cccc4Cl)noc3C3CC3)cc2Cl)c2nc[nH]c2c1` [Compound I-90, 4-((2-chloro-4-((5-cyclopropyl-3-(2,6-dichlorophenyl)isoxazol-4-yl)methoxy)phenyl)ethynyl)-1H-benzo[d]imidazole-6-carboxylic acid]: the EC50 is 0.2 to 1 µM and the Emax was found to be 75%.
The matching figures for `O=C(O)c1cccc(C#Cc2ccc(OCc3c(-c4c(Cl)cccc4Cl)noc3C3CC3)c(Cl)c2Cl)c1` [Compound I-69, 3-((2,3-dichloro-4-((5-cyclopropyl-3-(2,6-dichlorophenyl)isoxazol-4-yl)methoxy)phenyl)ethynyl)benzoic acid]: 0.2 to 1 µM and over 100%.
For `O=C(O)c1cc(C#Cc2ccc(OCc3c(-c4c(Cl)cccc4Cl)noc3C3CC3)cc2Cl)c2ccn(CCN3CCOCC3)c2c1` [Compound I-95, 4-((2-chloro-4-((5-cyclopropyl-3-(2,6-dichlorophenyl)isoxazol-4-yl)methoxy)phenyl)ethynyl)-1-(2-morpholinoethyl)-1H-indole-6-carboxylic acid hydrochloride], in that order: 0.02 to 0.06 µM and over 100%.
